Reference: publication PMC7175117, “Biological Evaluation and Docking Studies of New Carbamate, Thiocarbamate, and Hydrazide Analogues of Acyl Homoserine Lactones as Vibrio fischeri-Quorum Sensing Modulators” (Biomolecules, 2020)
pIC50: −log10 of the molar value. Entries after “also recorded” stand apart in the source; their conditions may differ.

Tests used:
[1] = tested on: Vibrio fischeri quorum sensing system; test: Antagonistic activity: decrease of bioluminescence in competition with OHHL (200 nM) in recombinant E. coli NM522 with sensor plasmid pSB401; assay type: cell-based; conditions: for residual bioluminescence: 100 µM of analogue in competition with 200 nM OHHL; for pIC50: increasing concentration of compound in competition with 200 nM OHHL
Protocol: (§1) The recombinant Escherichia coli strain NM522 with the sensor plasmid pSB401 was used to measure the induction of luminescence. Bacterial cultures were grown in Luria broth (50 mL) at 30 °C. After 18 h, this bacterial culture was diluted 10 times to be used in the assay using 96-well plates (100 µL per well). For agonistic activity, compounds were tested at increasing concentrations in DMSO (max 2% in a total volume of 200 µL of LB). For antagonistic activity, compounds were tested in competition with OHHL (200 nM) at increasing concentrations in DMSO (max 2% in a total volume of 200 µL). This 200 nM concentration of OHHL is fully pertinent since concentrations as low as 10 or 50 nM are already valid protocols as reported in meaningful studies. Bioluminescence was measured with a Tecan spark luminometer (Männedorf, Switzerland).
(§2) All compounds were evaluated for the ability to induce bioluminescence (agonistic activity) or to decrease bioluminescence in the presence of 3-oxo-hexanoyl-L-homoserine lactone (OHHL) at 200 nM (antagonistic activity). Hydrazide AHL analogues were deprived of any activity.
A first assessment of the antagonistic activity was performed by measuring residual bioluminescence at 100 µM concentration of analogues in competition with 200 nM of OHHL. […] A residual bioluminescence of 42% for the L-butyl carbamate derivative 2 vs. 89% for the D-isomer 3 was measured showing the influence of the configuration on luminescence and therefore on QS inhibition.
To determine IC50 values, the decrease of bioluminescence of was measured using increasing concentration of each compound in presence of 200 nM of OHHL (Table 1). Values ranging from 22 to 94 µM, in the range of other reported of AHL-structurally related QS inhibitors, were measured for compounds 2, 4–7, and 9–11. Differences in the calculated LogP values are consistent with inhibitory activity for most compounds except 4-nitrobenzyl analogues. This is the case for all thiocarbamates vs. carbamates, and also when comparing the butyl (2) and hexyl (4) derivatives, or the benzyl and 4-bromobenzyl substituents.

[2] = tested on: Vibrio fischeri quorum sensing system; test: Agonistic activity: induction of bioluminescence in recombinant E. coli NM522 with sensor plasmid pSB401; assay type: cell-based
Protocol: as §1, §2

Row | SMILES | residual bioluminescence [1] [%] | pIC50 [1] | other results
1 | CCCCOC(=O)N[C@@H]1CCOC1=O [Compound 3, N-(butoxycarbonyl)-D-homoserine lactone] | 89 | – | –
2 | O=C(N[C@H]1CCOC1=O)OCc1ccccc1 [Compound 5, N-(benzyloxycarbonyl)-L-homoserine lactone] | – | 4.07 | –
3 | CCCCOC(=O)N[C@H]1CCOC1=O [Compound 2, N-(butoxycarbonyl)-L-homoserine lactone] | 42 | 4.03 | –
4 | CCOC(=O)N[C@H]1CCOC1=O [Compound 1, N-(ethoxycarbonyl)-L-homoserine lactone] | – | – | bioluminescence induced, relative to that obtained with the natural ligand OHHL at 200 nM ([2]; compound at 200 µM, OHHL reference at 200 nM): 18%; agonistic activity ([2]; induction of bioluminescence, increasing concentrations): weak agonistic activity; also recorded: very weak agonistic activity
5 | O=C(N[C@H]1CCOC1=O)OCc1ccc(Br)cc1 [Compound 6, N-(4-bromobenzyloxycarbonyl)-L-homoserine lactone] | – | 4.19 | –
6 | O=C(N[C@H]1CCOC1=O)SCc1ccccc1 [Compound 10, N-(benzylthiocarbonyl)-L-homoserine lactone] | – | 4.19 | –
7 | CCCCSC(=O)N[C@H]1CCOC1=O [Compound 9, N-(butylthiocarbonyl)-L-homoserine lactone] | – | 4.35 | –
8 | CCCCCCOC(=O)N[C@H]1CCOC1=O [Compound 4, N-(hexyloxycarbonyl)-L-homoserine lactone] | 22 | 4.14 | –
